Assay results taken from publication PMC12730333 (Biology, 2025).
Where two headings read alike, the source gives them in different places. Marks after values point to notes of the source that are not given here.

What was measured:
[1] = tested on: promastigote forms of Leishmania amazonensis PH8 strain; experiment: ROS production by flow cytometry, H2DCFDA, promastigotes; assay type: cell-based; details: exposed to IC50 (AA 10 µM), 24 h
[2] = tested on: ex vivo amastigote forms of L. amazonensis LTB0016 strain; experiment: ROS production by flow cytometry, H2DCFDA, ex vivo amastigotes; assay type: cell-based, Leishmania amazonensis; details: exposed to IC50 (AA 10 µM), 24 h; for VIROS, Ex Vivo Amastigotes High Population / VIROS, Ex Vivo Amastigotes Low Population: MT/MC
[3] = Cytotoxicity assay (Alamar Blue, 24 h) on HepG2 cells; assay type: cell-based, human; details: human, HepG2 cells, 0.5 × 10^5 cells/well
Method: (§1) HepG2 cells (human hepatocellular carcinoma), VERO cells (African green monkey kidney), and J774.G8 macrophages (murine reticulosarcoma) were maintained in DMEM medium, supplemented with 10% FBS, 1% Pen/Str at 37 °C and 5% CO2 [70, 71]. For the cultivation of L929 fibroblasts (murine fibrosarcoma), RPMI 1640 medium without phenol red, supplemented with 2 mM L-glutamine, 10% FBS, and 1% Pen/Str, was used and maintained under the same conditions of temperature and CO2 as above.
(§2) J774.G8, VERO (10^5 cells/well), HepG2, L929 (0.5 × 10^5 cells/well) cells, and MPMs (3 × 10^5 cells/well) were centrifuged, resuspended in medium, plated in 96-well microplates, and incubated for 24 h under cultivation conditions. Subsequently, they were exposed to different concentrations of the compounds, serially diluted in medium to a final volume of 100 µL/well, and incubated for 24 h at 37 °C and 5% CO2. Cell viability was then assessed using the AB, and data were acquired by spectrophotometry. […] Untreated cells were used as negative controls, and cells exposed to the reference compound (MT) were used as positive controls. The Selectivity Index (SI) was calculated using the ratio SI = CC50 (mammalian cells)/IC50 (promastigote or amastigote forms of L. amazonensis).

[4] = tested on: promastigote forms of Leishmania amazonensis PH8 strain; experiment: Leishmanicidal activity assay on promastigotes (Alamar Blue, 24 h); assay type: cell-based; details: 10^6 parasites/mL
Method: Promastigote forms of Leishmania amazonensis (IFLA/BR/1967/PH8) were obtained from the Instituto Oswaldo Cruz Leishmania collection (CLIOC/Fiocruz). These cultures were maintained in Schneider’s Insect Medium, supplemented with 20% FBS and 1 μL/mL of Pen/Str at 26 °C. In vitro passages were conducted weekly, with promastigotes harvested during the late logarithmic phase for experiments on the 5th day of growth (Figure S1A).
MT was employed as the reference drug.

[5] = tested on: ex vivo amastigote forms of L. amazonensis LTB0016 strain; experiment: Leishmanicidal activity assay on ex vivo amastigotes (Alamar Blue, 24 h); details: for IC50: 24 h, read-out: IC50 Ama.; for efficacy compared with MT: concentrations below 0.28 μM; for inhibitory action compared with MT: doses < 0.10 μM
Text: Ex vivo amastigote forms of L. amazonensis (MHOM/BR/77/LTB0016) were harvested and purified from lesions of male BALB/c mice. For this, a suspension containing 10^6 amastigotes was inoculated subcutaneously into the intraplantar region of the hind paw. After 30 days, the animals were euthanized, and their paws were excised and rinsed in 70% ethanol. The epidermis and necrotic tissues were mechanically dissociated. Subsequently, the paws were placed in Petri dishes containing RPMI 1640 medium supplemented with 5% FBS and 2% Pen/Str. […] The supernatant was transferred to another tube, homogenized with a syringe, and centrifuged at 764× g for another 15 min. The supernatant was discarded, and the pellet was resuspended in RPMI 1640 medium [69].
(§4) Promastigotes were kept at 26 °C, whereas amastigotes were kept at 32 °C. After 24 h, parasite viability was assessed using the AB colorimetric method, and the data were analyzed using a spectrophotometer as previously described [74]. […] Wells with medium and without parasites were used as blanks, and wells with medium and untreated parasites were used as negative controls. MT was employed as the reference drug.

[6] = Cytotoxicity assay (Alamar Blue, 24 h) on J774.G8 macrophages; assay type: cell-based, murine; details: mouse, J774.G8 macrophages, 10^5 cells/well, read-out: CC50 J744.G8
Method: as §1, §2

VERO cells = experiment: Cytotoxicity assay (Alamar Blue, 24 h) on VERO cells; assay type: cell-based, African green monkey; details: for CC50: 10^5 cells/well
Method: as §1, §2

[7] = as above; assay type: cell-based, African green monkey; details: African green monkey, VERO cells, 10^5 cells/well
Method: as §1, §2

[8] = Cytotoxicity assay (Alamar Blue, 24 h) on L929 fibroblasts; assay type: cell-based, murine; details: mouse, L929 fibroblasts; for CC50 at 24 h: 0.5 × 10^5 cells/well
Method: as §1, §2

[9] = Cytotoxicity assay (Alamar Blue, 24 h) on murine peritoneal macrophages; assay type: cell-based, Swiss Webster mice; details: male, Swiss Webster, mouse, murine peritoneal macrophages (MPMs, primary cells); for CC50 at 24 h: 3 × 10^5 cells/well
Method: (§3) Murine peritoneal macrophages—MPMs (primary cells)—were isolated from male Swiss Webster mice stimulated with 1 mL of 3% Brewer’s thioglycollate medium, administered intraperitoneally. After 96 h, the animals were euthanized, and the MPMs were collected by peritoneal lavage with approximately 10 mL of RPMI 1640 medium. The cell suspension was centrifuged at 382× g for 10 min, and the pellet was resuspended in medium supplemented with 5% FBS, 1% Pen/Str, and 2 mM L-glutamine. All cell cultures were maintained at 37 °C and 5% CO2 [73]. For the experiments, all cell types were cultured until confluency.
as §2

HepG2 cells = experiment: Cytotoxicity assay (Alamar Blue, 24 h) on HepG2 cells; assay type: cell-based, human; details: 0.5 × 10^5 cells/well
Method: as §1, §2

[10] = tested on: ex vivo amastigote forms of L. amazonensis LTB0016 strain; experiment: Mitochondrial membrane potential (ΔΨm) by flow cytometry, TMRE, ex vivo amastigotes; details: for TMRE MFI, ex vivo Amastigotes High Population / TMRE MFI, ex vivo Amastigotes Low Population / VIΔΨm, ex vivo Amastigotes High Population / VIΔΨm, ex vivo Amastigotes Low Population: exposed to IC50, 24 h; for VIΔΨm, ex vivo Amastigotes High Population / VIΔΨm, ex vivo Amastigotes Low Population: (MT − MC)/MC
[11] = tested on: promastigote forms of Leishmania amazonensis PH8 strain; experiment: Mitochondrial membrane potential (ΔΨm) by flow cytometry, TMRE, promastigotes; details: exposed to IC50, 24 h; for VIΔΨm, Promastigotes High Population / VIΔΨm, Promastigotes Low Population: (MT − MC)/MC; for VIΔΨm, Promastigotes Low Population: negative = depolarization
[12] = tested on: Leishmania amazonensis promastigote forms (PH8 strain); details: exposed to IC50, 24–168 h
Method: as §4

J774.G8 cells = experiment: Cytotoxicity assay (Alamar Blue, 24 h) on J774.G8 macrophages; assay type: cell-based, murine; details: 10^5 cells/well, read-out: CC50 J744.G8
Method: as §1, §2

L929 cells = experiment: Cytotoxicity assay (Alamar Blue, 24 h) on L929 fibroblasts; assay type: cell-based, murine; details: for CC50: 0.5 × 10^5 cells/well
Method: as §1, §2

[13] = tested on: murine peritoneal macrophages—MPMs; experiment: Cytotoxicity assay (Alamar Blue, 24 h) on murine peritoneal macrophages; assay type: cell-based, Swiss Webster mice; details: 3 × 10^5 cells/well
Method: as §3, §2

[14] = ex vivo amastigotes, 10^6 parasites/mL

Row | SMILES | H2DCFDA MFI, Promastigotes High Population [1] | H2DCFDA MFI, Promastigotes Low Population [1] | H2DCFDA MFI, Ex Vivo Amastigotes High Population [2] | H2DCFDA MFI, Ex Vivo Amastigotes Low Population [2] | VIROS, Ex Vivo Amastigotes High Population [2] | VIROS, Ex Vivo Amastigotes Low Population [2] | CC50 at 24 h [3] [µM] | IC50 ([4]; Leishmania amazonensis) [µM] | CC50 (HepG2 cells) [µM] | IC50 [4] [µM] | TMRE MFI, ex vivo Amastigotes High Population [10] | TMRE MFI, ex vivo Amastigotes Low Population [10] | VIΔΨm, ex vivo Amastigotes High Population [10] | VIΔΨm, ex vivo Amastigotes Low Population [10] | inhibitory action compared with MT ([5]; ex vivo amastigotes) | TMRE MFI, Promastigotes High Population [11] | TMRE MFI, Promastigotes Low Population [11] | VIΔΨm, Promastigotes High Population [11] | VIΔΨm, Promastigotes Low Population [11] | time from which proliferation was significantly (p < 0.05) reduced compared to MT [12] [h] | other results
1 | CCCCCC[C@H]1C(=O)O[C@H](C)[C@H](NC(=O)c2cccc(NC=O)c2O)C(=O)O[C@@H](C)[C@@H]1OC(=O)CC(C)C [AA, Antimycin A, reference compound] | 890,705.80 | 19,775.40 | 143,227.25 | 3011.23 | 0.60 ± 0.53 | 1.14 ± 0.38 | – | – | – | – | – | – | – | – | – | – | – | – | – | – | VIROS, Promastigotes Low Population ([1]; MT/MC): 0.52 ± 0.13; VIROS, Promastigotes High Population ([1]; MT/MC (fold of control)): 2.07 ± 0.23
2 | CCCCCCCCCCCCCCCCOP(=O)([O-])OCC[N+](C)(C)C [Miltefosine, miltefosine, reference compound] | – | – | – | – | – | – | 181 ± 11.3 | 23.2 ± 2.55 | – | – | – | – | – | – | – | – | – | – | – | – | IC50 ([5]; Leishmania amazonensis): 0.97 ± 0.4 µM; CC50 at 24 h [6]: 156 ± 8.48 µM; viability of VERO cells (VERO cells; concentrations ≥ 300 μM): eliminated the viability; CC50 at 24 h [7]: 168 ± 2.75 µM; CC50 at 24 h [8]: 113 ± 18.2 µM; CC50 at 24 h [9]: 103 ± 4.77 µM; viability at 24 h ([9]; exposures up to 70 μM): > 50%
3 | CCNc1cc2[s+]c3cc(NCC)c(C)cc3nc2cc1C [NMB, new methylene blue] | 1,512,521.00 * | 31,489.80 | 131,669.43 | 2940.57 | 0.84 ± 0.51 | 1.62 ± 0.90 | > 70 | < 5.5 | 71.6 ± 3.15 | 5.42 | 277,557.80 * | 3770.37 | −0.43 ± 0.20 | −0.27 ± 0.06 | more inhibitory action | 65,590.87 | 4095.05 | 0.11 ± 0.08 | −0.14 ± 0.20 | ≥ 72 | loss of potential (ΔΨm) in HP ex vivo amastigotes / mitochondrial depolarization ([10]; IC50, 24 h): up to 61%; IC50 ([5]; Leishmania amazonensis): 2.66 ± 0.95 µM; efficacy compared with MT ([5]; ex vivo amastigotes): surpassed the efficacy of MT; CC50 at 24 h [6]: 68.5 ± 2.12 µM; CC50 at 24 h [7]: 44.7 ± 3.4 µM; CC50 at 24 h [8]: 280.2 ± 2.19 µM; viability at 24 h ([8]; lower concentrations (37–100 μM), read-out: viability of L929 cells): > 50%; CC50 at 24 h [9]: 31.3 ± 5.72 µM
4 | CCNc1cc2[s+]c3cc(NCC)c(C)cc3nc2cc1C.F[P-](F)(F)(F)(F)F.F[P-](F)(F)(F)(F)F.F[P-](F)(F)(F)(F)F.F[P-](F)(F)(F)(F)F.N#[O+].[Ru+2].c1ccc(-c2ccccn2)nc1.c1ccc(-c2ccccn2)nc1 [NMB-B, new methylene blue B] | 2,639,177.00 ** | 39,191.97 | 131,896.27 | 2116.87 | 0.85 ± 0.49 | 1.11 ± 0.48 | – | – | 34.2 ± 7.31 | 5.48 | 410,112.30 | 4174.80 | −0.59 ± 0.21 | −0.31 ± 0.03 | more inhibitory action | 74,562.13 | 4070.50 | 0.27 ± 0.16 | −0.13 ± 0.09 | ≥ 48 | decrease of ΔΨm considering both subpopulations ([10]; ex vivo amastigotes, LP plus HP, IC50, 24 h): 90%; IC50 [5, 14]: 3.16 ± 0.37 µM; CC50 (J774.G8 cells): 130 ± 7.35 µM; CC50 (VERO cells): 248 ± 32.9 µM; CC50 (L929 cells): 270 ± 8.48 µM; viability of L929 cells (L929 cells; lower concentrations (37–100 μM)): > 50%; CC50 [13]: 65.9 ± 1.69 µM
5 | CCNc1cc2[s+]c3cc(NCC)c(C)cc3nc2cc1C.F[P-](F)(F)(F)(F)F.F[P-](F)(F)(F)(F)F.F[P-](F)(F)(F)(F)F.F[P-](F)(F)(F)(F)F.N#[O+].[Ru+2].c1cnc2c(c1)ccc1cccnc12.c1cnc2c(c1)ccc1cccnc12 [NMB-P, new methylene blue P] | 2,325,902.50 ** | 34,607.80 | 140,291.57 | 3063.17 | 0.90 ± 0.45 | 1.27 ± 0.45 | – | – | 35.1 ± 2.08 | 2.84 | 642,051.43 | 7215.47 | 0.39 ± 0.13 | 0.21 ± 0.04 | more inhibitory action | 86,029.23 | 3359.03 * | 0.49 ± 0.36 | −0.28 ± 0.03 | ≥ 96 | efficacy compared with MT ([5]; ex vivo amastigotes): surpassed the efficacy of MT; IC50 [5, 14]: 0.46 ± 0.34 µM; CC50 (J774.G8 cells): 69.8 ± 10.4 µM; CC50 (VERO cells): 240 ± 27.6 µM; CC50 (L929 cells): 150 ± 12 µM; CC50 [13]: 71.6 ± 1.85 µM
